Row | melting point [°C] | SMILES
1 | 100 to 108 | CCOC(=O)N(c1cccc(C(F)(F)F)c1)c1ccccc1-n1nc(C(=O)O)nc1CCl
2 | 134 | CC(C)N(Cc1ccc(Br)cc1)C(=S)Nc1ccccc1
3 | 180 to 182 | CNc1nc(-c2cccc(NC(=O)CCc3ccccc3)c2)c2cc(OC)c(OC)cc2n1
4 | 113 to 114 | COc1ccc(CCNC(=O)Cc2ccc(C(=O)c3ccccc3)cc2)cc1OC
5 | 179 to 181 | O=c1c2cc(F)c(F)cc2n(-c2cccc(F)c2)c(=O)n1OCc1ccccc1
6 | 204 to 206 | O=C1C(=Cn2ccnc2)C(c2ccccc2)c2ccccc21 (stereo not drawn)
7 | 216 | Cc1cc2cc(CN3CCCC3)cnc2cc1NC(=O)c1ccc(-c2ccc(Cl)s2)cc1
8 | 80 to 81 | Cc1cc(NCc2ccccc2)c2c(c1)C(c1ccc(C(C)C)cc1)C(C)(C)O2 (stereo not drawn)
9 | 213 to 215 | Nc1ccc(CO)c(Nc2nccc(-c3cccnc3)n2)c1
10 | 163 | O=[N+]([O-])c1cc(C(O)CN2CCN(C(c3ccccc3)c3ccccc3)CC2)ccc1Cl (stereo not drawn)
11 | 144 | CCOC(=O)c1cn2c(C)c(C)nc2c(NCc2c(C)cccc2CC)n1
12 | 203 to 205 | COc1ccc(Nc2nccc(-c3ccc(Cl)nc3)n2)cn1
13 | 165 to 167 | CCN(CC)C(=O)CCC(=O)Nc1ccc(C(=O)N2CCCCc3ccccc32)cc1
14 | 213 to 216 | O=C1c2ccc3cc(C(=O)N4CCN(Cc5ccccc5)CC4)cnc3c2N=CC1[N+](=O)[O-] (stereo not drawn)
15 | 129 to 130 | CCN(CC)C(=O)c1cc(-c2ccc(OC)cc2)c2ccccc2c1OC
16 | 151 to 152 | COc1cc2c(cc1OC)-c1cc(=Nc3c(C)cc(C)cc3C)n(C)c(=O)n1CC2
17 | 224 to 227 | COc1ccc(-c2cnn3c(N)c(-c4ccc(F)c(Cl)c4)c(C)nc23)cc1

Row | melting point [°C] | SMILES
18 | 131 to 133 | Cc1csc2ncc(C(C)(O)CCc3ccccc3)n12 (stereo not drawn)
19 | 110 to 111 | O=C(O)CCCCC(=O)NCCc1ccccc1
20 | 173 to 175 | COc1cc2c(cc1OC)[C@@H]1CN(C)CC[C@@H]1N=C2c1ccc(NC(C)=O)cc1 (relative stereo)
21 | 142 | CCC(Nc1ccccc1C(=O)O)c1nccnc1OCc1ccccc1 (stereo not drawn)
22 | 190 to 198 | Cc1ccc2nc(NC(=O)c3c(Cl)cccc3Cl)cc(NN)c2c1C
23 | 89 to 91 | O=c1[nH]nc(CN2CC[C@H](OCc3cc(C(F)(F)F)cc(C(F)(F)F)c3)[C@H](c3ccccc3)C2)[nH]1 (relative stereo)
24 | 89 to 91 | C#CCOCc1nnc(Nc2ccc3c(c2)ncn3-c2ccccc2)c2ccccc12
25 | 68 to 69 | COc1cc(COc2ccccc2C=O)cc(OC)c1
26 | 90.5 to 91.5 | CCn1c2cccc(C=O)c2c2c3ccccc3ccc21
27 | 156 to 157 | NNc1cc(-c2ccccc2)c2cc(Cl)ccc2n1
28 | 89 to 90 | COC(=O)C(C)CNc1nc2ccccc2o1 (stereo not drawn)
29 | 106 to 110 | O=C(O)CCNc1ccccc1CNC(=O)C1Cc2ccccc2N1S(=O)(=O)c1ccc(-c2ccc(F)cc2F)cc1 (stereo not drawn)
30 | 99.5 to 102 | COc1cn(Cc2ccc(OC)c(OC)c2)c(=O)o1
31 | 87 to 89 | COc1cc(N)c(Cl)cc1C(=O)NCC1CCN(CCCCC(=O)c2cn(C)c3ccccc23)CC1
32 | 134 to 139 | CSC1C(=O)Nc2c(Oc3cccc4ccccc34)cccc21 (stereo not drawn)
33 | 230 to 233 | CN(C)C(=Cc1ccccc1[N+](=O)[O-])C(=O)CN1C(=O)c2ccccc2C1=O
34 | 173 to 175 | COc1ccc(C(=O)Nc2ccccc2)cc1NC(=O)C(O)c1ccccc1 (stereo not drawn)

The next lines start with the compound.

Row | SMILES | melting point [°C]
35 | CCCCOC(=O)[C@H]1NC(=O)[C@H]1N (relative stereo) | 87 to 89
36 | O=C1CCC(c2ccc(OCC3CO3)c3ccccc23)=NN1 (stereo not drawn) | 151 to 155
37 | COc1ccc(NC(=S)C2CC2)cn1 | 79 to 83
38 | Cc1oc(C=Cc2ccc(Cl)cc2)nc1CCl | 121 to 122
39 | CCCCCCCCCCCCCCCCOCC(CO)Oc1cc(-c2ccccc2)on1 (stereo not drawn) | 45.5 to 46.5
40 | CCCCCCCCCCCCN(c1nc(Cl)nc(Cl)n1)c1nc(Cl)nc(Cl)n1 | 50 to 53
41 | Cc1cc(C)c(N2CCCc3c2nn(C)c3C(=O)O)c(Cl)c1 | 248
42 | O=C(N[C@@H]1CCc2c(Br)ccc(N3CCNCC3)c2C1)c1ccc(N2CCOCC2)cc1 | 228 to 229
43 | CNC(=O)C1=CC(CF)(CF)Oc2ccc(C#N)cc21 | 206 to 207
44 | C=CCNC(=O)ON=C1SCOC1C (stereo not drawn) | 66 to 67.5
45 | CCC(=O)NC[C@H]1CN(c2ccc3c(c2)CCCc2cnoc2-3)C(=O)O1 | 185 to 186
46 | CC1CN(S(=O)(=O)c2cccc(C(=O)O)c2)C(C)CN1S(=O)(=O)c1cccc(C(=O)O)c1 (stereo not drawn) | 223 to 227
47 | BrCc1ccc(-c2ccc(CBr)cn2)nc1 | 188
48 | CCOC(=O)CN(CP(=O)(ONN(C)C)ONN(C)C)C(=O)C(F)(F)F | 84.5 to 87.5
49 | CCOCc1nc2c(N)nc(C)c(C)c2n1CCNS(C)(=O)=O | 185 to 187
50 | NC(=O)c1cccc(OCCCCC/C=C\c2ccc(Cl)o2)c1 | 53 to 56
51 | CN1C(=O)N2CCSC2(C)C1=O (stereo not drawn) | 67 to 68
52 | O=C(NCCCCl)Nc1c(Cl)cccc1C(=O)O | 124 to 125
53 | O=C1CC(c2cccs2)=Nc2ccc(I)cc2N1 | > 260
54 | CC(=NO)c1ccc(N)c(S(N)(=O)=O)c1 | 230 to 233
55 | CCC1Cc2c(O)cc(OC)cc2C(=O)O1 (stereo not drawn) | 167 to 168
56 | O=C1C(c2cccc(Br)c2)n2cncc2CN1Cc1ccsc1 (stereo not drawn) | 43 to 45
57 | CNc1nc(Cl)nc2c(Cl)ncnc12 | 196 to 197
58 | CC(Cc1cc(C(C)(C)C)c(O)c(C(C)(C)C)c1)C(=O)Oc1ccc(C(=O)c2cc(C(C)(C)C)c(O)c(C(C)(C)C)c2)c(O)c1 (stereo not drawn) | 163 to 165
59 | COc1cc(N)c(Cl)cc1C(=O)NCC1CCN(CCCCCNCc2ccc(F)cc2)CC1 | 66 to 68
60 | OCc1ccnc(OCc2cn3c(Cl)cccc3n2)c1 | 143 to 144
61 | CC1=C([N+](=O)[O-])C(c2ccccc2C(F)(F)F)c2c[nH]nc2N1 (stereo not drawn) | 257 to 258

Row | SMILES | melting point [°C]
62 | O=c1[nH]c2c(CCN3CCN(c4ncccn4)CC3)cccc2o1 | 189 to 190
63 | C[C@@H](C(=O)O)N(C)C(=O)CCSSc1ccc([N+](=O)[O-])cc1 | 74 to 77
64 | CN1C(=O)Cc2cc(C(=O)[C@H]3CC[C@H]3C(=O)O)ccc21 (relative stereo) | 210 to 212
65 | CCOC(=O)C1(C(=O)Nc2cc(Cl)c(Cl)cc2C)CC1 | 105 to 107
66 | O=C(NC1(C(=O)O)CC1)OCCOC(=O)c1ccccc1 | 174 to 176
67 | OCCOc1ccsc1 | 38 to 39
68 | Nc1cc(-n2cc(C(=O)O)c(=O)c3cc(F)c(Cl)nc32)c(F)cc1Cl | > 270
69 | Cc1ccc(Nc2c(C)cc(Cl)cc2Cl)c(CC(=O)O)c1 | 137 to 141
70 | CCCN(C=Nc1ccc2nnc(-c3ncc([N+](=O)[O-])n3C)n2n1)CCC | 155 to 157
71 | CCOC(=O)N(Cc1ccc(F)cc1)c1ccc(C(=O)OC)cc1 | 83 to 84
72 | Cc1c(C)c2c(c(C)c1O)CCC(COc1ccc(CC3SC(=O)NC3=O)cc1)O2 (stereo not drawn) | 158 to 159
73 | O=C1C=CC(=O)C2=C1OCCO2 | 156
74 | O=C1C=C(NC(=O)C(=O)c2cn(Cc3ccc(F)cc3)c3cc4c(cc23)OCO4)CO1 | 210 to 212
75 | C=C1SC(=O)N(c2ccc3cc(-c4ccc(OC)c(C56CC7CC(CC(C7)C5)C6)c4)ccc3c2)C1=O | 286 to 287
76 | O=C1c2ccc(Cl)cc2C(=O)N1C1CCN(CCc2c[nH]c3ccccc23)CC1 | 188 to 190
77 | CCCCCCCCCCCCCCCCCCCCCCSCCC(=O)NN | 106
78 | CCCCCCCCCCCCCCCCC(COC(C)=O)(COC(C)=O)NC(C)=O | 84 to 86
79 | CC1(c2cccc3c2CCc2ccccc2C3=O)OCCO1 | 144 to 145
80 | COC(=O)c1ccc2c(c1)OCCO2 | 43 to 45
81 | C[C@@H](c1ccc(-c2[nH]nnc2Cl)cc1)[C@](O)(Cn1cncn1)c1ccc(F)cc1F | 113 to 115
82 | CN1CCN(CC(=O)Nc2cccc3c2C(=O)c2c-3n[nH]c2-c2ccc(N3CCOCC3)cc2)CC1 | 258
83 | NC(c1ccccc1)c1ccc(C(N)c2ccc(C(N)c3ccccc3)cc2)cc1 (stereo not drawn) | 182 to 185
84 | C=CCNC(=S)NNCC1CC2c3cccc4[nH]cc(c34)CC2N(C)C1 (stereo not drawn) | 207 to 208
85 | C=CCOc1ccc(CC(=O)NCCCC)cc1 | 87 to 89
86 | CCN(CC)CCOc1ccc(C#CC(C)(C)O)cc1 | 64
87 | CCOC(=O)/C(=N\OC1CCCC1)c1csc(N)n1 | 136 to 138
88 | CCOCCCCCCCCCCC(=O)O | 44 to 45.5

— a melting point compilation (Tetko et al.; mined from patent text by program, amines drawn as free bases though some values may be those of a salt)
